Test systems include ACHN renal; CCRF-CEM leukemia; HOP-62 NSCLC; MDA-MB-435; NCI-H226 lung; SNB-19 CNS; SW-620 colon; HOP-92 NSCLC.
Holding throughout (assay): NCI anticancer screen, dose series, 48 h

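Exposure lasted 48 hours, with cells grown in 96-well plates and compounds tested at five concentrations. At the GI50, growth is halved. TGI: total growth inhibition.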

The values that follow come from PubChem BioAssay (NCI).

`CCCCCCCCCCCCCCCC(=O)OCC(O)C1OC(=O)C(O)=C1O` (centres undefined): the TGI amounted to 98.7 µM with ACHN renal; 47.5 µM in the assay on CCRF-CEM leukemia; 60.3 µM in the assay on HOP-62 NSCLC; 42.4 µM with MDA-MB-435; 47.1 µM in the assay on NCI-H226 lung; 91.4 µM in the assay on SNB-19 CNS. In the assay with SW-620 colon, this compound showed a TGI of more than 100 µM.

On to `CCN(CC)CCOc1ccc(/C=C2\CC3C4CCC5=CC(=O)CC[C@]5(C)C4CC[C@]3(C)C2=O)cc1OC` (some centres undefined), for which the GI50 is 3.05 µM in the assay on ACHN renal; 2.5 µM in the assay on HOP-62 NSCLC; 3.14 µM in the assay on HOP-92 NSCLC; 1.87 µM with MDA-MB-435; 2.03 µM in the assay on NCI-H226 lung; 4.03 µM with SNB-19 CNS. Further, in the assay on SW-620 colon, the GI50 was 2.98 µM. The TGI with HOP-62 NSCLC stood at 6.37 µM; in the assay with HOP-92 NSCLC it was 7.51 µM; with MDA-MB-435, 4 µM; in the assay on NCI-H226 lung, 6.51 µM; in the assay with SNB-19 CNS, 22.7 µM; in the assay with SW-620 colon it was 13.4 µM.

As for `COC(=O)c1ccccc1NC(=O)/C(=N\NC(C)(C)C)C(C#N)c1nc(-c2ccc([N+](=O)[O-])cc2)cs1` (centres undefined), the TGI with ACHN renal, with CCRF-CEM leukemia, in the assay on HOP-92 NSCLC, in the assay on MDA-MB-435, in the assay with NCI-H226 lung and with SNB-19 CNS was more than 100 µM in each case. This compound displayed a TGI in the assay with SW-620 colon of more than 100 µM.

As to `O=C(COc1cccc(/C=C2\COc3ccccc3C2=O)c1)Nc1nccs1`, the GI50 is 1.86 µM in the assay on ACHN renal; 1.63 µM in the assay on CCRF-CEM leukemia; 4.11 µM with HOP-62 NSCLC; 2.51 µM in the assay with MDA-MB-435; 4.62 µM with NCI-H226 lung; 9.93 µM with SNB-19 CNS. Also, the GI50 in the assay with SW-620 colon is 1.97 µM. The TGI in the assay on ACHN renal is 3.55 µM; in the assay with CCRF-CEM leukemia, 4.91 µM; in the assay with HOP-62 NSCLC, 15.9 µM; with MDA-MB-435 it was 7.53 µM; in the assay on NCI-H226 lung, 25.1 µM; in the assay on SNB-19 CNS, 22.1 µM. In the assay with SW-620 colon, this compound showed a TGI of 3.98 µM.

Turning to `O=S1(=O)CCN(Cc2ccccn2)CC1`, the TGI in the assay on ACHN renal, in the assay on HOP-62 NSCLC, with HOP-92 NSCLC, in the assay on MDA-MB-435, with NCI-H226 lung and in the assay on SNB-19 CNS was more than 100 µM throughout. Besides, the TGI in the assay on SW-620 colon is more than 100 µM.

Consider `CC(=O)/C=C/C1=C(c2cc3ccccc3s2)c2ccccc2CC1`, for which the GI50 in the assay with ACHN renal was 19.4 µM; in the assay on HOP-62 NSCLC it was 36.5 µM; in the assay with HOP-92 NSCLC it was 14.8 µM; in the assay with MDA-MB-435 it was 23 µM; with NCI-H226 lung it was 19.8 µM; in the assay with SNB-19 CNS, 50.7 µM. Moreover, the GI50 in the assay on SW-620 colon was 32.6 µM. The TGI was 45.5 µM in the assay on ACHN renal; more than 100 µM with HOP-62 NSCLC; 62.6 µM in the assay on HOP-92 NSCLC; 52.5 µM with MDA-MB-435; 40.8 µM with NCI-H226 lung; more than 100 µM in the assay with SNB-19 CNS. Further, the TGI with SW-620 colon is more than 100 µM.

With `CN1CCN(c2ccc3c4c(cccc24)C(=O)N(CCN2CCN(CCCN4CCN(CCN5C(=O)c6cccc7c(N8CCN(C)CC8)ccc(c67)C5=O)CC4)CC2)C3=O)CC1`, the GI50 in the assay with ACHN renal is 3.13 µM; with HOP-62 NSCLC it was 1.49 µM; with HOP-92 NSCLC, 2.39 µM; in the assay with MDA-MB-435 it was 7.34 µM; with NCI-H226 lung, 6 µM; in the assay on SNB-19 CNS it was 7.03 µM. For the same compound, in the assay with SW-620 colon, the GI50 was 1.59 µM. Moreover, the TGI was 9.72 µM with ACHN renal; 6.82 µM in the assay on HOP-62 NSCLC; 10.9 µM with HOP-92 NSCLC; 15.5 µM in the assay with MDA-MB-435; 14.4 µM with NCI-H226 lung; 16.2 µM in the assay with SNB-19 CNS. In addition, the TGI in the assay on SW-620 colon was 50 µM.

For `O=C1/C(=C/c2ccccc2Cl)N=C(c2ccccc2)N1Cc1ccco1`, the GI50 in the assay with ACHN renal is more than 100 µM; with CCRF-CEM leukemia it was 5.35 µM; with HOP-62 NSCLC, more than 100 µM; in the assay on HOP-92 NSCLC it was 51.9 µM; in the assay on MDA-MB-435 it was 20.1 µM; in the assay on SNB-19 CNS, more than 100 µM. Also, the GI50 in the assay with SW-620 colon is 89.6 µM. For the same compound, the TGI was more than 100 µM with ACHN renal; more than 100 µM with CCRF-CEM leukemia; more than 100 µM with HOP-62 NSCLC; more than 100 µM in the assay on HOP-92 NSCLC; 49.9 µM in the assay on MDA-MB-435; more than 100 µM with SNB-19 CNS. The TGI with SW-620 colon is more than 100 µM.

As to `CCCCC(=O)N/N=C/c1cc(I)cc(I)c1O`, the GI50 in the assay on ACHN renal is 2.4 µM; in the assay on CCRF-CEM leukemia it was 1.23 µM; with HOP-62 NSCLC, 3.67 µM; in the assay on MDA-MB-435, 5.54 µM; in the assay on NCI-H226 lung it was 5.93 µM; in the assay on SNB-19 CNS, 3.43 µM. The GI50 in the assay with SW-620 colon was 3.91 µM. The TGI in the assay with ACHN renal is 13.4 µM; with CCRF-CEM leukemia, 12.5 µM; with HOP-62 NSCLC, 19.8 µM; with MDA-MB-435 it was 23.9 µM; in the assay on NCI-H226 lung it was 36.7 µM; with SNB-19 CNS, 35.6 µM. In addition, the TGI with SW-620 colon is more than 100 µM.

Regarding `O=[N+]([O-])c1ccccc1N=Nc1c(O)[nH]c2ccccc12`, the TGI with ACHN renal is 23.7 µM; in the assay on CCRF-CEM leukemia it was more than 100 µM; with HOP-62 NSCLC, more than 48 µM; with MDA-MB-435, more than 100 µM; with NCI-H226 lung, more than 59.1 µM; in the assay with SNB-19 CNS, more than 100 µM. Besides, in the assay with SW-620 colon, the TGI was more than 100 µM.

For the compound `CCCN(CCC)c1ccc(CO)c(C)c1`, the GI50 in the assay on ACHN renal was 81 µM; in the assay with CCRF-CEM leukemia, 17.7 µM; with HOP-62 NSCLC it was more than 100 µM; in the assay on MDA-MB-435 it was 76.8 µM; in the assay on NCI-H226 lung, 9.4 µM; in the assay on SNB-19 CNS, more than 100 µM. The GI50 in the assay with SW-620 colon was more than 100 µM. Further, the TGI in the assay on ACHN renal is more than 100 µM; with CCRF-CEM leukemia, 59.9 µM; in the assay with HOP-62 NSCLC, more than 100 µM; with MDA-MB-435, more than 100 µM; with NCI-H226 lung, 23.7 µM; in the assay on SNB-19 CNS it was more than 100 µM. Besides, the TGI in the assay with SW-620 colon is more than 100 µM.

As to `O=C(Nc1cc(C(F)(F)F)ccc1F)Nc1n[nH]c2ccccc12`, the GI50 in the assay on ACHN renal, in the assay with HOP-62 NSCLC, in the assay with HOP-92 NSCLC, with MDA-MB-435, in the assay on NCI-H226 lung and in the assay on SNB-19 CNS was more than 100 µM each time. In the assay with SW-620 colon, the GI50 was more than 100 µM. Besides, the TGI in the assay with ACHN renal, in the assay on HOP-62 NSCLC, with HOP-92 NSCLC, in the assay with MDA-MB-435, with NCI-H226 lung and in the assay with SNB-19 CNS was more than 100 µM in each case. Besides, in the assay on SW-620 colon, the TGI is more than 100 µM.
